The numbers were not newly measured in patent publication US20050058722A1, “Herbo-mineral formulation for refractory leukemias and lymphomas” (Sahajanand Biotech Private Limited, priority 2003, published 2005), which cites them from elsewhere.

Series [1] deals with myeloid leukemia cell lines. Particulars: pre-clinical studies.
The subject of another series is lymphoid neoplasms. Particulars: pre-clinical studies.

In the case of Arsenic trioxide, the Apoptosis and differentiation entry in series [1] was “dose-dependent induction of apoptosis and partial differentiation”. The “Apoptosis and cell cycle” value with lymphoid neoplasms was “induction of apoptosis and cell cycle arrest”.
